Measured values taken from the supplement of paper PMC11061612.

Key:
Assay in all cases: Bliss excess, mean over the matrix (fraction); higher = more synergy
[1] = test system: GA-10 (Burkitt's Lymphoma)
Method in brief: (§1)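 Cell lines grown in DMEM/F12 or RPMI with 10% FBS were plated in 1536-well plates and held 24 hours at 37°C, 5% CO2 before 72 hours of exposure to two-drug dose matrices, with DMSO typically at 0.2%. CellTiter-Glo 2.0 luminescence gave viability, which was converted to inhibition. Vehicle wells were set to 0 and blank wells to 1. Combination Emax is the second-highest inhibition in the matrix, and Bliss excess is the observed combination effect minus the expected EA + EB − EA·EB, where EA and EB are the single-agent effects.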

[2] = test system: JHU-022 (Oral Cavity Carcinoma)
Method in brief: as §1

769-P (Kidney Carcinoma) = test system: 769-P (Kidney Carcinoma)
Method in brief: as §1

COLO-792 (Melanoma) = test system: COLO-792 (Melanoma)
Method in brief: as §1

[3] = test system: A253 (Head and Neck Carcinoma)
Method in brief: as §1

IM-9 (Non-Cancerous) = test system: IM-9 (Non-Cancerous)
Method in brief: as §1

[4] = test system: DU-4475 (Breast Carcinoma)
Method in brief: as §1

[5] = test system: JVM-2 (B-Cell Non-Hodgkin's Lymphoma)
Method in brief: as §1

[6] = test system: CESS (Acute Myeloid Leukemia)
Method in brief: as §1

[7] = test system: A2780 (Ovarian Carcinoma)
Method in brief: as §1

[8] = test system: NCI-H1703 (Squamous Cell Lung Carcinoma)
Method in brief: as §1

[9] = test system: MHH-ES-1 (Ewing's Sarcoma)
Method in brief: as §1

[10] = test system: NCI-H716 (Colorectal Carcinoma)
Method in brief: as §1

[11] = test system: KYSE-220 (Esophageal Squamous Cell Carcinoma)
Method in brief: as §1

[12] = test system: GCT (Other Solid Carcinomas)
Method in brief: as §1

KP-N-YN (Neuroblastoma) = test system: KP-N-YN (Neuroblastoma)
Method in brief: as §1

[13] = test system: OACp4C (Esophageal Adenocarcinoma)
Method in brief: as §1

A204 (Rhabdomyosarcoma) = test system: A204 (Rhabdomyosarcoma)
Method in brief: as §1

[14] = test system: LS-411N (Colorectal Carcinoma)
Method in brief: as §1

[15] = test system: NCI-H2228 (Lung Adenocarcinoma)
Method in brief: as §1

Row | SMILES | Bliss excess [1] | Bliss excess [2] | Bliss excess (769-P (Kidney Carcinoma)) | Bliss excess (COLO-792 (Melanoma)) | Bliss excess [3] | Bliss excess (IM-9 (Non-Cancerous)) | Bliss excess [4] | Bliss excess [5] | Bliss excess [6] | Bliss excess [7] | Bliss excess [8] | Bliss excess [9] | Bliss excess [10] | Bliss excess [11] | Bliss excess [12] | Bliss excess (KP-N-YN (Neuroblastoma)) | Bliss excess [13] | Bliss excess (A204 (Rhabdomyosarcoma)) | Bliss excess [14] | Bliss excess [15]
1 | CCN(CCO)CCCOc1ccc2c(Nc3cc(CC(=O)Nc4cccc(F)c4)[nH]n3)ncnc2c1 [AZD2811] + C[C@@H]1COCCN1C2=NC(=NC(=C2)C3(CC3)[S@](=N)(=O)C)C4=C5C=CNC5=NC=C4 [AZD6738] (first compound max 1 µM, 7x7, partner max 10 µM) | -0.057 | -0.0357 | -0.0107 | 0.0336 | -0.0471 | -0.0441 | 0.0045 | -0.0809 | -0.0259 | -0.0619 | -0.0148 | -0.0145 | -0.0765 | -0.0541 | -0.0318 | -0.0751 | 0 | -0.0492 | -0.0366 | -0.0184
2 | CCN(CCO)CCCOc1ccc2c(Nc3cc(CC(=O)Nc4cccc(F)c4)[nH]n3)ncnc2c1 [AZD2811] + O=C(c1cc(Cc2n[nH]c(=O)c3ccccc23)ccc1F)N1CCN(C(=O)C2CC2)CC1 [Olaparib] (first compound max 1 µM, 7x7, partner max 10 µM) | -0.0469 | -0.021 | -0.018 | -0.0187 | 0.0485 | -0.0191 | 0.0213 | -0.125 | 0.0591 | 0.0453 | 0.0062 | -0.0214 | 0.0047 | 0.01 | 0.0585 | 0.0058 | -0.0304 | 0.0034 | -0.0082 | -0.021
3 | COc1nnc2ccc(N3CCC(c4ccc(OCCN5CCN(C)C(=O)[C@H]5C)cc4)CC3)nn12 [AZD5153] + C=CCn1c(=O)c2cnc(Nc3ccc(N4CCN(C)CC4)cc3)nc2n1-c1cccc(C(C)(C)O)n1 [AZD1775] (first compound max 1 µM, partner max 1 µM) | -0.0367 | -0.0698 | -0.0321 | 0.0823 | -0.0328 | -0.107 | 0.0311 | -0.0959 | -0.0643 | -0.0523 | 0.0052 | -0.0662 | -0.0734 | -0.0622 | 0.0168 | -0.135 | -0.0295 | -0.0887 | -0.0334 | -0.0784
4 | COc1nnc2ccc(N3CCC(c4ccc(OCCN5CCN(C)C(=O)[C@H]5C)cc4)CC3)nn12 [AZD5153] + CC1(C)CCC(CN2CCN(c3ccc(C(=O)NS(=O)(=O)c4ccc(NCC5CCOCC5)c([N+](=O)[O-])c4)c(Oc4cnc5[nH]ccc5c4)c3)CC2)=C(c2ccc(Cl)cc2)C1 [Venetoclax] (first compound max 1 µM, 7x7, partner max 1 µM) | -0.0497 | -0.0043 | -0.0457 | -0.0162 | -0.0724 | 0.0394 | 0.0181 | -0.0081 | -0.0713 | -0.0689 | -0.0404 | -0.046 | -0.0035 | -0.015 | -0.107 | -0.0809 | -0.0242 | -0.0383 | -0.0573 | -0.0523
5 | COc1nnc2ccc(N3CCC(c4ccc(OCCN5CCN(C)C(=O)[C@H]5C)cc4)CC3)nn12 [AZD5153] + CCN(CCO)CCCOc1ccc2c(Nc3cc(CC(=O)Nc4cccc(F)c4)[nH]n3)ncnc2c1 [AZD2811] (first compound max 1 µM, 7x7, partner max 1 µM) | -0.122 | -0.0601 | -0.0217 | -0.0406 | -0.0153 | -0.111 | 0.0934 | -0.0498 | 0.0259 | -0.0295 | -0.038 | -0.0345 | -0.0316 | 0.0083 | -0.0201 | -0.0355 | -0.062 | -0.0849 | -0.0233 | -0.0285
6 | COc1nnc2ccc(N3CCC(c4ccc(OCCN5CCN(C)C(=O)[C@H]5C)cc4)CC3)nn12 [AZD5153] + C[C@@H]1COCCN1C2=NC(=NC(=C2)C3(CC3)[S@](=N)(=O)C)C4=C5C=CNC5=NC=C4 [AZD6738] (first compound max 1 µM, 7x7, partner max 10 µM) | -0.0177 | -0.0134 | 0.0196 | 0.0774 | 0.0315 | -0.0697 | 0.0294 | -0.061 | -0.0554 | -0.0058 | 0.02 | 0.0074 | -0.0312 | 0.0019 | 0.029 | -0.0174 | 0.0085 | 0.042 | 0.0754 | -0.0179
7 | COc1nnc2ccc(N3CCC(c4ccc(OCCN5CCN(C)C(=O)[C@H]5C)cc4)CC3)nn12 [AZD5153] + Cc1c2c(nn1C)CSCc1cc(n(C)n1)CSc1cc(c3ccccc3c1)OCCCc1c(C(=O)O)n(C)c3c-2c(Cl)ccc13 [AZD5991] (first compound max 1 µM, 7x7, partner max 1 µM) | -0.0598 | -0.0703 | -0.0716 | 0.0196 | 0.0071 | -0.127 | 0.0617 | -0.0404 | -0.0124 | -0.0324 | -0.0186 | -0.0049 | 0.0076 | -0.0229 | -0.0425 | -0.0362 | 0.0438 | -0.0116 | 0.0068 | -0.0261
8 | COc1nnc2ccc(N3CCC(c4ccc(OCCN5CCN(C)C(=O)[C@H]5C)cc4)CC3)nn12 [AZD5153] + Cn1cnc2c(F)c(Nc3ccc(Br)cc3Cl)c(C(=O)NOCCO)cc21 [Selumetinib] (first compound max 1 µM, 7x7, partner max 10 µM) | -0.0813 | -0.0807 | -0.0261 | -0.055 | 0.0009 | 0.0322 | 0.0219 | 0.0655 | -0.0651 | -0.0118 | -0.0065 | -0.0114 | 0.016 | 0.123 | -0.0506 | -0.0967 | 0.101 | -0.0838 | 0.0602 | -0.0535
9 | Cc1c2c(nn1C)CSCc1cc(n(C)n1)CSc1cc(c3ccccc3c1)OCCCc1c(C(=O)O)n(C)c3c-2c(Cl)ccc13 [AZD5991] + C1CN(CCC1(C(=O)N[C@@H](CCO)C2=CC=C(C=C2)Cl)N)C3=NC=NC4=C3C=CN4 [Capivasertib] (first compound max 1 µM, 7x7, partner max 3 µM) | 0.0138 | -0.0273 | -0.0369 | 0.0076 | 0.0473 | -0.0616 | -0.0023 | 0.0245 | -0.0114 | -0.0233 | 0.0157 | 0.0008 | 0.0001 | 0.0187 | -0.0219 | -0.0382 | 0.019 | -0.0305 | -0.0038 | -0.0225
10 | Cc1c2c(nn1C)CSCc1cc(n(C)n1)CSc1cc(c3ccccc3c1)OCCCc1c(C(=O)O)n(C)c3c-2c(Cl)ccc13 [AZD5991] + CC1(C)CCC(CN2CCN(c3ccc(C(=O)NS(=O)(=O)c4ccc(NCC5CCOCC5)c([N+](=O)[O-])c4)c(Oc4cnc5[nH]ccc5c4)c3)CC2)=C(c2ccc(Cl)cc2)C1 [Venetoclax] (first compound max 1 µM, 7x7, partner max 1 µM) | -0.0658 | -0.0291 | -0.0328 | 0.0312 | 0.0088 | 0.218 | 0.0375 | 0.0109 | 0.0276 | 0.0777 | 0.0049 | 0.0733 | -0.0436 | 0.0093 | -0.0272 | 0.0865 | 0.13 | -0.0226 | 0 | -0.0122
11 | Cc1c2c(nn1C)CSCc1cc(n(C)n1)CSc1cc(c3ccccc3c1)OCCCc1c(C(=O)O)n(C)c3c-2c(Cl)ccc13 [AZD5991] + CCN(CCO)CCCOc1ccc2c(Nc3cc(CC(=O)Nc4cccc(F)c4)[nH]n3)ncnc2c1 [AZD2811] (first compound max 1 µM, 7x7, partner max 1 µM) | -0.0092 | 0.0039 | -0.0395 | -0.0095 | 0.0542 | -0.0112 | 0.075 | 0.032 | 0.192 | 0.0561 | 0.0139 | 0.0173 | -0.0013 | 0.0088 | 0.0106 | 0.0556 | 0.0088 | 0.0358 | 0.0206 | 0.0161
12 | Cc1c2c(nn1C)CSCc1cc(n(C)n1)CSc1cc(c3ccccc3c1)OCCCc1c(C(=O)O)n(C)c3c-2c(Cl)ccc13 [AZD5991] + CN(C)CCCOc1ccc(-c2ccc3ncc4c(c3c2)n(C2CCOCC2)c(=O)n4C)cn1 [AZD0156] (first compound max 1 µM, 7x7, partner max 1 µM) | -0.0564 | -0.0079 | -0.0089 | 0.0191 | 0.0058 | -0.0637 | -0.0262 | -0.0266 | -0.026 | -0.0094 | -0.0272 | -0.0112 | 0.0233 | -0.0053 | 0.0338 | -0.0752 | 0.0162 | 0.0048 | -0.0058 | -0.0096
